What follows are molecules tested against Nucleotide-binding oligomerization domain-containing protein 2 (Homo sapiens, UniProt Q9HC29) (assay: Inhibition of NOD2 (unknown origin) expressed in HEK293T cells coexpressing NF-kappaB driven luciferase reporter gene by HTS primary assay).
Format: cell-based, HEK-293T

Chain of Nucleotide-binding oligomerization domain-containing protein 2 (Q9HC29 whole entry, the tested form may be a part): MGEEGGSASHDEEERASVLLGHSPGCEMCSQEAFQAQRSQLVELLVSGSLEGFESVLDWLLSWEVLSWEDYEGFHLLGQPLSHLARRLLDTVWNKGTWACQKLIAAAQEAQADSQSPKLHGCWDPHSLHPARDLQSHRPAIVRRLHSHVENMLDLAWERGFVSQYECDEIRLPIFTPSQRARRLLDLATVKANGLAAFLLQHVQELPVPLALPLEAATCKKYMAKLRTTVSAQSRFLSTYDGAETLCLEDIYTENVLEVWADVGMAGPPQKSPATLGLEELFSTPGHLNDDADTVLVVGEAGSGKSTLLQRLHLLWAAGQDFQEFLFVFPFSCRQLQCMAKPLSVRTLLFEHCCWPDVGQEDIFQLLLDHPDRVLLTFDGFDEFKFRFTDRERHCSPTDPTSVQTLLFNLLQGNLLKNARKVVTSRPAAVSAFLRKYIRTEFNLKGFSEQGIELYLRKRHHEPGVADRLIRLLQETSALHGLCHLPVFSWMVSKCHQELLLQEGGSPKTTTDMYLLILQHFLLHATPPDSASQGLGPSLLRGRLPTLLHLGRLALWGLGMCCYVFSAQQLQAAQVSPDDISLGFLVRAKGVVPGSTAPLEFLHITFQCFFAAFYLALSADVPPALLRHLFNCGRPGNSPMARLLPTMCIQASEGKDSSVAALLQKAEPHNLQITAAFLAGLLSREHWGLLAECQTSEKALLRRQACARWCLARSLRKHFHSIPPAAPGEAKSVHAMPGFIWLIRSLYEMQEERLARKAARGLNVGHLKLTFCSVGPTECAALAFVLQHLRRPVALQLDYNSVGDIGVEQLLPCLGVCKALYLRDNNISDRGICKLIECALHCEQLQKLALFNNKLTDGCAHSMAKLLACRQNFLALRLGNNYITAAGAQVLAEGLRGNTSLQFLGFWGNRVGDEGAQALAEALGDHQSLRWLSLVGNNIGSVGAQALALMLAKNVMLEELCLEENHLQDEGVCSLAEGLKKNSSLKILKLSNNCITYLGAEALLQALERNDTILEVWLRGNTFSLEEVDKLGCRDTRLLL

Row | Compound | IC50
1 | C/C=C/Cn1c(SCCCc2ccccc2)nc2c1c(=O)[nH]c(=O)n2C | 12700 nM
2 | Cc1ccc(S(=O)(=O)n2c(N)nc3ccccc32)cc1 | > 20000 nM
3 | CCCCCn1c(SCCc2ccccc2)nc2c1c(=O)[nH]c(=O)n2C | > 20000 nM

The molecules below were run against T1, Nucleotide-binding oligomerization domain-containing protein 1 (Homo sapiens, UniProt Q9Y239) (assay: Inhibition of NOD1 (unknown origin) expressed in HEK293T cells coexpressing NF-kappaB driven luciferase reporter gene by HTS primary assay).
T1 sequence (Q9Y239 whole entry): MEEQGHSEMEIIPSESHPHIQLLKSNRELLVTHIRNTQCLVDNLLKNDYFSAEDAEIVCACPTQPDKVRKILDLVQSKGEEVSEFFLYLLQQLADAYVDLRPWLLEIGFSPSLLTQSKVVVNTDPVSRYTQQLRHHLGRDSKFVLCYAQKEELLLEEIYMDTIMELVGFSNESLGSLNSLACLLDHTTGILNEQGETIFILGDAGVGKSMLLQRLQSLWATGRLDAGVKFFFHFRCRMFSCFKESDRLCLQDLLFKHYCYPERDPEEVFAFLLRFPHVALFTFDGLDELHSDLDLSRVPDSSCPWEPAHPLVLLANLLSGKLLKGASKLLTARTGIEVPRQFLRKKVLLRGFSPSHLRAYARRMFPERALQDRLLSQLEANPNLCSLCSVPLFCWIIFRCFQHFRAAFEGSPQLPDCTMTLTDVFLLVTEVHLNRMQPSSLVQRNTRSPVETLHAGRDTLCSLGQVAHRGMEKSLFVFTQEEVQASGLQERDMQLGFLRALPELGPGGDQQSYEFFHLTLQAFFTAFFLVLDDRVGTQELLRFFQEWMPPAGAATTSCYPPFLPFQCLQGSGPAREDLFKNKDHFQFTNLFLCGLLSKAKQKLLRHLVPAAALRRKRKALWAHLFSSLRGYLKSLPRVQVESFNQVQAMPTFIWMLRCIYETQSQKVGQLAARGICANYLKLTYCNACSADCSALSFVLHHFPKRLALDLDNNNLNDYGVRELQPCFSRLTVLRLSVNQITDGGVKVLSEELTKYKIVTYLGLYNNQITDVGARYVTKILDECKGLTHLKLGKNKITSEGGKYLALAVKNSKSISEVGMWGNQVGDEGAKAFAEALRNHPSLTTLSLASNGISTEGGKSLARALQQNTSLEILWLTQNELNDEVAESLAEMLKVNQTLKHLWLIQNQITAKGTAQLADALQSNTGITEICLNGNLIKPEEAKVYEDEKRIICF
Format: cell-based, HEK-293T

Row | Compound | IC50
4 | O=C(Cn1c(CCNC(=O)c2ccccc2)nc2cc(Cl)ccc21)Nc1ccc2c(c1)CCC2 | 1300 nM
5 | CN(CCc1nc2ccccc2n1CC(=O)Nc1ccc2c(c1)CCC2)C(=O)c1ccccc1 | 400 nM
6 | CC(C)c1cccc(NC(=O)Cn2c(CCNC(=O)c3ccccc3)nc3ccccc32)c1 | 800 nM
7 | O=C(Cn1c(CCNC(=O)c2ccccc2)nc2ccccc21)Nc1ccc2c(c1)CCC2 | 3300 nM
8 | O=C(Cn1c(CCNC(=O)c2ccccc2)nc2ccccc21)Nc1ccc2ccccc2c1 | 1600 nM
9 | CN(CCc1nc2ccccc2n1CC(=O)Nc1ccc2c(c1)CCC2)C(=O)c1ccc2ccccc2c1 | 200 nM
10 | O=C(Cn1c(CCNC(=O)c2ccc3ccccc3c2)nc2ccccc21)Nc1ccc2c(c1)CCC2 | 3400 nM

Source: ChEMBL document CHEMBL3352342, “Nucleotide-binding oligomerization domain (NOD) inhibitors: a rational approach toward inhibition of NOD signaling pathway” (J Med Chem, 2014)
